# Measured values from patent US5654308A (priority 1990, dated 1997).
# Where a name gives a salt, the structure may show the parent alone.
# Target: T1, acetylcholine esterase (Mus musculus, UniProt P21836)
# T1 construct: using a mouse brain homogenate as the acetylcholine esterase source; from tissue; host or cells: mouse brain homogenate
# Test: biochemical
# Details: not given
# T1 sequence (P21836 32-614): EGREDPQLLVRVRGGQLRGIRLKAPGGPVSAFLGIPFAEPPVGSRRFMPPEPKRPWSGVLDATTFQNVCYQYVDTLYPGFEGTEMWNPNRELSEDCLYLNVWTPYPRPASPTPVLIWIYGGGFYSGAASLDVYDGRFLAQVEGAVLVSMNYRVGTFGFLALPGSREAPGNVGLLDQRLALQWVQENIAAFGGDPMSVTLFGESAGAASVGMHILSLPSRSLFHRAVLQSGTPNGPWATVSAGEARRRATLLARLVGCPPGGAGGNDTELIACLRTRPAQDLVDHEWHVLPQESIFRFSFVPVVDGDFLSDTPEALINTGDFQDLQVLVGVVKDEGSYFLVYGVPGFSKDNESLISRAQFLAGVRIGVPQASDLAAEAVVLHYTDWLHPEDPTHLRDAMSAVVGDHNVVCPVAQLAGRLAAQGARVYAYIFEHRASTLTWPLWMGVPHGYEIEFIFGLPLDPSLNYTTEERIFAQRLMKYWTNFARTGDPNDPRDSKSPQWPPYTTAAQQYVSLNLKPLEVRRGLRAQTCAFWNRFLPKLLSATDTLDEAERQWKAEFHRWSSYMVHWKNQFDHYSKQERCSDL
row,SMILES,IC50 [nM]
1,"COc1cccc2c1CN(CCC1CCN(Cc3ccccc3)CC1)C(=O)O2 [Example 1, 3-[2-(1-Benzyl-4-piperidyl)ethyl]-5-methoxy-2H-3,4-dihydro-1,3-benzoxazin-2-one hydrochloride]",0.03
2,"O=C1Oc2ccccc2CN1CCC1CCN(Cc2ccccc2)CC1 [Example 2, 3-[2-(1-Benzyl-4-piperidyl)ethyl]-2H-3,4-dihydro-1,3-benzoxazin-2-one hydrochloride]",4.94
3,"O=c1oc2ccccc2c(=O)n1CCC1CCN(Cc2ccccc2)CC1 [Example 3, 3-[2-(1-Benzyl-4-piperidyl)ethyl]-2H-3,4-dihydro-1,3-benzoxazine-2,4-dione hydrochloride]",8.52
4,"COc1ccc2c(c1)CN(CCC1CCN(Cc3ccncc3)CC1)C(=O)O2 [Example 4, 3-{2-[1-(4-Pyridylmethyl)-4-piperidyl]ethyl}-6-methoxy-2H-3,4-dihydro-1,3-benzoxazin-2-one dihydrochloride]",7.93
5,"COc1ccc2oc(=O)n(CCC3CCN(CC4CCCC4)CC3)c(=O)c2c1 [Example 6, 3-[2-(1-Cyclopentylmethyl-4-piperidyl)-6-methoxy-ethyl]-2H-3,4-dihydro-1,3-benzoxazine-2,4-dione hydrochloride]",4.86
6,"COc1ccc2oc(=O)n(CCC3CCN(CC4OCCO4)CC3)c(=O)c2c1 [Example 7, 3-{2-[1-(1,3-Dioxolan-2-ylmethyl)-4-piperidyl]ethyl}-6-methoxy-2H-3,4-dihydro-1,3-benzoxazine-2,4-dione hydrochloride]",124
7,"Cc1ccc2c(n1)CN(CCC1CCN(Cc3ccccc3)CC1)C(=S)O2 [Example 9, 3-[2-(1-Benzyl-4-piperidyl)ethyl]-2H-3,4-dihydro-6-methylpyrido[2,3-d]-m-oxazine-2-thione hydrochloride]",8.38
8,"O=c1[nH]c2nccnc2c(=O)n1CCC1CCN(Cc2ccccc2)CC1 [Example 10, 3-[2-{4 [(1-Benzyl)piperidyl]}ethyl]pyrazino[2,3-d]-pyprimidine-2,4-dione fumarate]",31.8
9,"CC1(O)c2nccnc2C(=O)N1CCC1CCN(Cc2ccccc2)CC1 (centres unmarked) [Example 11, 1-[2-{4-[(1-Benzyl)piperidyl]}ethyl]-7-hydroxy-7-methylpiperazino[2,3-c]pyrrolidin-2-one]",99.6
10,"C=C1c2nccnc2C(=O)N1CCC1CCN(Cc2ccccc2)CC1 [Example 12, 1-[2-{4-[(1-Benzyl)piperidyl]}ethyl]-7-methylenepiperazino[2,3-c]pyrrolidin-2-one fumarate]",1.82
11,"O=C1CC(Cc2ccccc2)CN1CCC1CCN(Cc2ccccc2)CC1 (centres unmarked) [Example 14, 1-[2-{(4-[(1-Benzyl)piperidyl]}ethyl]-4-benzylpyrrolidin-2-one hydrochloride]",23.8
12,COc1ccc2c(c1)OC(=O)N(CCC1CCN(Cc3ccccc3)CC1)C2 [Example 24],1.87
13,COc1cccc2c1OC(=O)N(CCC1CCN(Cc3ccccc3)CC1)C2 [Example 25],2.74
14,COc1ccc2c(c1)CN(CCC1CCN(Cc3ccccc3)CC1)C(=O)O2 [Example 26],0.5
15,C=C1c2ccccc2C(=O)N1CCC1CCN(Cc2ccccc2)CC1 [Example 27],45.4
16,COc1cc(OC)c2c(c1)OC(=O)N(CCC1CCN(Cc3ccccc3)CC1)C2 [Example 28],0.38
17,O=C1Oc2c(Cl)cc(Cl)cc2CN1CCC1CCN(Cc2ccncc2)CC1 [Example 30],29.1
18,O=C1Oc2ccc([N+](=O)[O-])cc2CN1CCC1CCN(Cc2ccccc2)CC1 [Example 31],0.58
19,O=C1Oc2ccc(Cl)cc2CN1CCC1CCN(Cc2ccccc2)CC1 [Example 32],1.39
20,O=C1Oc2ccc([N+](=O)[O-])cc2CN1CCC1CCN(Cc2ccncc2)CC1 [Example 34],13.8

row,SMILES,IC50 [nM]
1,Nc1ccc2c(c1)CN(CCC1CCN(Cc3ccccc3)CC1)C(=O)O2 [Example 35],1.85
2,CC(=O)Nc1ccc2c(c1)CN(CCC1CCN(Cc3ccccc3)CC1)C(=O)O2 [Example 36],1.17
3,Cc1ccc2oc(=O)n(CCC3CCN(Cc4ccccc4)CC3)c(=O)c2c1 [Example 37],2.97
4,COc1ccc2oc(=O)n(CCC3CCN(Cc4ccccc4)CC3)c(=O)c2c1 [Example 38],0.7
5,O=c1oc2ccc(F)cc2c(=O)n1CCC1CCN(Cc2ccccc2)CC1 [Example 39],7.79
6,O=c1oc2ccc(F)cc2c(=O)n1CCC1CCN(CC2OCCO2)CC1 [Example 40],1020
7,COc1ccc2c(c1)CN(CCC1CCN(CC3CCCC3)CC1)C(=O)O2 [Example 41],4.64
8,COc1ccc2c(c1)CN(CCC1CCN(CC3CCCCC3)CC1)C(=O)O2 [Example 42],3.92
9,COc1ccc2oc(=O)n(CCC3CCN(CC4CCCCC4)CC3)c(=O)c2c1 [Example 43],2.96
10,COc1ccc2oc(=O)n(CCC3CCN(Cc4ccoc4)CC3)c(=O)c2c1 [Example 46],11.4
11,COc1cccc2c1CN(CCC1CCN(CC3OCCO3)CC1)C(=O)O2 [Example 52],64.9
12,COc1ccc2oc(=O)n(CCC3CCN(Cc4cccc(F)c4)CC3)c(=O)c2c1 [Example 53],0.18
13,COc1ccc2c(c1)CN(CCC1CCN(Cc3cccc(F)c3)CC1)C(=O)O2 [Example 54],0.34
14,Cc1ccc2oc(=O)n(CCC3CCN(Cc4ccccc4)CC3)c(=O)c2n1 [Example 64],9.11
15,O=C(c1ccccc1)C1CC(=O)N(C2CCN(Cc3ccccc3)CC2)C1 (centres unmarked) [Example 65],34000
16,O=C1Nc2ncccc2CN1CCC1CCN(CC2OCCO2)CC1 [Example 66],288
17,O=c1[nH]c2ncccc2c(=O)n1CCC1CCN(Cc2ccncc2)CC1 [Example 71],137
18,CCOc1ccccc1C(=O)C1CC(=O)N(CCC2CCN(Cc3ccccc3)CC2)C1 (centres unmarked) [Example 74],27.7
19,CCOc1ccc(C(=O)C2CC(=O)N(CCC3CCN(Cc4ccccc4)CC3)C2)cc1 (centres unmarked) [Example 75],20.8

# Same assay, conditions: read-out: AChE inhibiting activity IC50
row,SMILES,IC50 [nM]
1,"COc1ccc2c(c1)CN(CCC1CCN(CC3OCCO3)CC1)C(=O)O2 [Example 5, 3-{2-[1-(1,3-Dioxolan-2-ylmethyl)}-4-piperidine]ethyl}-6-methoxy-2H-3,4-dihydro-1,3-benzoxazin-2-one hydrochloride]",49.5
2,"O=C(c1ccccc1)C1CC(=O)N(CCC2CCN(Cc3ccccc3)CC2)C1 (centres unmarked) [Example 13, 1-[2-{4-[(1-Benzyl)piperidyl]}ethyl]-4-benzoylpyrrolidin-2-one hydrochloride]",20.3
3,O=C1CCCc2cccnc2N1CCC1CCN(Cc2ccccc2)CC1 [Example 20],69.1
4,COc1ccc2c(c1)CN(CCC1CCN(Cc3ccoc3)CC1)C(=O)O2 [Example 44],5.04
5,O=c1[nH]c2c([N+](=O)[O-])cccc2c(=O)n1CCC1CCN(CC2OCCO2)CC1 [Example 68],220
